This is an account of results in PMC12146557 (iScience, 2025).

In assay [1] the target is T1, PfUbc13 (Plasmodium falciparum ubiquitin-conjugating enzyme 13) (Plasmodium falciparum, UniProt Q8I3J4).
T1 sequence (Q8I3J4 1-152): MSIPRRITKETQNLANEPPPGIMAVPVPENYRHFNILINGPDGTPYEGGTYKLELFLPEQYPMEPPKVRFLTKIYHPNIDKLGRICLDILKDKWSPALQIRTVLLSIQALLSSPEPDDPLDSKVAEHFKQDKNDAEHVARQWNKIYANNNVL
T1 sequence (Q8I5F9 1-1140 partner): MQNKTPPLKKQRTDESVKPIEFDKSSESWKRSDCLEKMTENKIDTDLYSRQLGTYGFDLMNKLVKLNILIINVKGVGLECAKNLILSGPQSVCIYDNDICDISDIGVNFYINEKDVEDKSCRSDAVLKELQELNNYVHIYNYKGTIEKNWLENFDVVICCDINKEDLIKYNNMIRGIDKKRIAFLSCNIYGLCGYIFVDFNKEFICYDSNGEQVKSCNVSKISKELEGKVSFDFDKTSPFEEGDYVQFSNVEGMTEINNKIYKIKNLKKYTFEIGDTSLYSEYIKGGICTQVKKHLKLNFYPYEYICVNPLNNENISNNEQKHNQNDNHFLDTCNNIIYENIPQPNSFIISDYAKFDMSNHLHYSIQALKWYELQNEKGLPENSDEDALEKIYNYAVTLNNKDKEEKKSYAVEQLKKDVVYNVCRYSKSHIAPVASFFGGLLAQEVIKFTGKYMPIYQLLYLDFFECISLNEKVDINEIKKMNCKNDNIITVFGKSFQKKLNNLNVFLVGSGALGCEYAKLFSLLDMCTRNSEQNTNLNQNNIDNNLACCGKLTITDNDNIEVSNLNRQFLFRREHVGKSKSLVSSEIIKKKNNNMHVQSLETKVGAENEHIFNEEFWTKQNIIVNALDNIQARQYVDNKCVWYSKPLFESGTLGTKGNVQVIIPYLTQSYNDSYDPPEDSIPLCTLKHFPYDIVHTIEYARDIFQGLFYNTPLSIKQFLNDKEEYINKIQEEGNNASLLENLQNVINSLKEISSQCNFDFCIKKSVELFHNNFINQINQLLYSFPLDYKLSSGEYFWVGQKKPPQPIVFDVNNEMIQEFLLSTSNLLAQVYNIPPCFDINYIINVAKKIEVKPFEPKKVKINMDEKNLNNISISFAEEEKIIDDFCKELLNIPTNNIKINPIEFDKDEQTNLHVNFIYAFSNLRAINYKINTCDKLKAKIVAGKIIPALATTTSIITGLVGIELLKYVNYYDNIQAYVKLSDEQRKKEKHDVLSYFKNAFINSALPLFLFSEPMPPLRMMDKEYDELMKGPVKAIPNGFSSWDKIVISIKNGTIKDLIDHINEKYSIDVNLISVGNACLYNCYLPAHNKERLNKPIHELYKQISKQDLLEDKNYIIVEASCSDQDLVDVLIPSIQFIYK
The assay can be described thus: LC-HRMS of tryptic peptides. The format is biochemical.

The next assay deals with T2, HsUbc13 (human Ubc13) (Homo sapiens, UniProt P61088).
T2 sequence (P61088 1-152): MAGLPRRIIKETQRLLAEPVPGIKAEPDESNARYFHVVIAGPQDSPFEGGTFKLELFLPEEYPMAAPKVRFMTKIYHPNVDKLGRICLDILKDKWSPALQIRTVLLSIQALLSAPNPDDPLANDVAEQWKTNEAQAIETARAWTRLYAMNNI
The assay can be described thus: LC-HRMS of tryptic peptides. The format is biochemical.

Each structure is given as a SMILES string.

For the compound `Cc1ccc(S(=O)(=O)c2ccc([N+](=O)[O-])o2)cc1` [NSC697923], the inhibition constant (Ki) in assay [1] stood at 360 ± 110 nM; on HsUbc13 (human Ubc13) it was 280 ± 70 nM.
